# Data published in patent US7098219B2, “Inhibitors of cellular efflux pumps of microbes” (Wockhart Limited, priority 2000, dated 2006).
# System: Staphylococcus aureus 1199 B NorA+
# Test: not given
# Assay type: cell-based
# Settings: combination with ciprofloxacin, broth microdilution checkerboard, 35° C. 20 hours; FIC index ≦0.5 synergistic, 0.5–2.0 additive, >2.0 antagonistic
# Excerpt: Testing method for inhibition of the efflux pump of Staphylococcus aureus 1199B NorA^+
# […]. Victor Lorian, Md., Fourth edition 1996, pp 333–338).
# In short, the assay involves broth microdilution method performed as recommended by the National Committee for Clinical Laboratory Standards (NCCLS) 1997 (Methods for Dilution of Antimicrobial Susceptibility Tests for Bacteria that Grow Aerobically, Fourth edition; Approved Standard, NCCLS document M7-A4, vol. 17, No. 2). The test organism used for the assay is Staphylococcus aureus 1199 B NorA^+.
# […]. Stock solutions of the efflux pump inhibitors tested are prepared in dimethyl sulfoxide (DMSO) at a final concentration of 5 mg/ml. Stock solutions are further diluted in Mueller Hinton Broth as per the need of the assay. Ciprofloxacin is dissolved in water.
# The checkerboard assay is performed in microtiter plates. […] The efflux pump inhibitor is diluted in the Y-axis, each row containing an equal concentration of efflux pump inhibitor. The result of these manipulations is that each well of the microtiter plate contains a unique combination of concentrations of the two agents. Bacterial inoculum is added at 5×10^5 CFU/ml. Microtiter plates are incubated at 35° C. for 20 hours. Reading is done by visibly noting turbidity and confirmed using a microtiter plate reader (Molecular Devices). The FIC index is calculated as
# (A) is the concentration of the experimental efflux pump inhibitor in the well that is the lowest inhibitory concentration in the Y-axis. (MICA) is the MIC of Staphylococcus aureus to experimental efflux pump inhibitor alone. FICA is the fractional inhibitory concentration of an experimental efflux pump inhibitor. […] (Antimicrobial Combination In Antibiotics in Laboratory Medicine, Ed. Victor Lorian, Md., Fourth edition 1996, pp 333–338).
row,Structure (SMILES),FIC INDEX
1,"CCOC(=O)NC1CCN(c2nc3c(cc2F)c(=O)c(C(=O)O)cn3C2CC2)C1 (stereo not shown) [Example 48 (NorA), 1-Cyclopropyl-6-fluoro-1,4-dihydro-7-{(3′-aminoethoxycarbonyl)pyrrolidin-3-yl}-4-oxo-naphthyridine-3-carboxylic acid]",(3-ethoxycarbonylamino)pyrrolidin-3-yl 0.314
2,"C[C@H]1CCc2c(N3CCC(O)C(C)(C)C3)c(F)cc3c(=O)c(C(=O)O)cn1c23 (stereo partly drawn) [Example 55 (NorA), S-(−)-9-Fluoro-6,7-dihydro-8-(4′-hydroxy-3′,3′-dimethylpiperidin-1-yl)-5-methyl-1-oxo-1H,5H-benzo[i,j]quinolizine-2-carboxylic acid]",0.378
3,"CCOC(=O)c1cn([C@@H](C)CCSc2ccccc2)c2c(F)c(N3CCC(O)CC3)c(F)cc2c1=O [Example 38 (NorA), Ethyl 6,8-Difluoro-7-(4-hydroxypiperidin-1-yl)-1-(1-phenylthio-3(S)-but-3-yl)-1,4-dihydro-4-oxo-quinoline-3-carboxylate]",0.100
4,Nc1c(F)c(N2CCC(CNC3CCNCC3)CC2)c(F)c2c1c(=O)c(C(=O)O)cn2C1CC1 [Example 33 (NorA)],0.314
5,"Nc1c(F)c(N2CCOCC2)c(F)c2c1c(=O)c(C(=O)O)cn2-c1ccccc1C(F)(F)F [Example 40 (NorA), 5-Amino-1-(2′-trifluoromethylphenyl)-6,8-difluoro-1,4-dihydro-7-(morpholin-1-yl)-4-oxo-quinoline-3-carboxylic acid]",0.314
6,CCNC1CCN(c2cc3c(cc2F)c(=O)c(C(=O)O)cn3-c2ccc(F)cc2)CC1 [Example 44 (NorA)],0.189
7,"CC1CC(C)CN(c2cc3c(cc2F)c(=O)c(C(=O)O)cn3-c2ccc(F)cc2F)C1 (stereo not shown) [Example 45 (NorA), 1-(2′,4′-Difluorophenyl)-6-fluoro-1,4-dihydro-7-(3′,5′-dimethylpiperidin-1-yl)-4-oxo-quinoline-3-carboxylic acid]",0.192
8,"CC1COCC(C)N1c1c(F)c(N)c2c(=O)c(C(=O)O)cn(C3CC3)c2c1F (stereo not shown) [Example 35 (NorA), 5-Amino-1-cyclopropyl-6,8-difluoro-1,4-dihydro-7-(3′,5′-dimethylmorpholin-1-yl)-4-oxo-quinoline-3-carboxylic acid]",0.314
9,"Cc1c(F)c(N2CCC(Nc3nc4c(cc3F)c(=O)c(C(=O)O)cn4-c3ccc(F)cc3F)C2)cc2c1c(=O)c(C(=O)O)cn2C1CC1 (stereo not shown) [Bis compound 5, N-1-{7-(1-cyclopropyl-6-fluoro-5-methyl-1,4-dihydro-4-oxo-quinolone-3-carboxylic acid)}-N-3-amino-{7-(1-(2,4-difluorophenyl)-6-fluoro-1,4-dihydro-4-oxo-1,8-naphthyridine-3-carboxylic acid)}-pyrrolidine]",0.320
10,CN(c1c(F)c(N)c2c(=O)c(C(=O)O)cn(C3CC3)c2c1F)C1CC(C)(C)N(C)C(C)(C)C1 [Example 34 (NorA)],0.282

# System: Mef Efflux Pump of Streptococcus pneumoniae 3514 and Streptococcus pyogenes 26-00
# Test: Two plate diffusion assay for macrolide (Mef) efflux pump inhibitors, azithromycin plate versus control plate
# Assay type: cell-based
# Settings: zone of inhibition in antibiotic plate (method: azithromycin 0.5 mcg/ml; footnote: levofloxacin) minus water control plate; strain not given
row,Structure (SMILES),Difference in Zone diameter Z1 (mm)
1,"CCOC(=O)COC(=O)c1cn(C2CC2)c2c(OC)c(N3CCC(N)C(C)(C)C3)c(F)cc2c1=O (stereo not shown) [Example 5 (Mef), Ethoxycarbony methyl 1-Cyclopropyl-6-fluoro-8-methoxy-1,4-dihydro-7-(4′-amino-3′,3′-dimethylpiperidin-1-yl)-4-oxo-quinoline-3-carboxylate]",13 mm
2,NC1CCN(c2nc3c(cc2F)c(=O)c(C(=O)O)cn3-c2ccc(F)cc2F)C1 (stereo not shown) [Example 22 (Mef)],8 mm
3,"CCNC1CCN(c2cc3c(cc2F)c(=O)c(C(=O)O)cn3-c2ccc(F)cc2F)CC1 [Example 17 (Mef), 1-(2′,4′-Difluorophenyl)-6-fluoro-1,4-dihydro-7-(4′-ethylaminopiperidin-1′-yl)-4-oxo-quinoline-3-carboxylic acid]",9 mm
4,"Nc1c(F)c(NC2CN3CCC2CC3)c(F)c2c1c(=O)c(C(=O)O)cn2C1CC1 (stereo not shown) [Example 14 (Mef), 5-Amino-1-cyclopropyl-6,8-difluoro-1,4-dihydro-7-(3′-quinuclidinyl-3′-yl-amino)-4-oxo-quinoline-3-carboxylic acid]",8 mm
5,"O=C(O)c1cn(C2CC2)c2nc(N3CC4C(C3)C4NCc3ccccc3)c(F)cc2c1=O (stereo not shown) [Example 21 (Mef), 1-Cyclopropyl-6-fluoro-1,4-dihydro-7-{(1∝,5∝,6∝)-6-amino-N-benzyl-3-azabicyclo[3.1.0]hex-6-yl}-4-oxo-1,8-naphthyridine-3-carboxylic acid]",17 mm
6,"Nc1c(F)c(C2(N)C3CN(Cc4ccccc4)CC32)c(F)c2c1c(=O)c(C(=O)O)cn2C1CC1 (stereo not shown) [Example 15 (Mef), 5-Amino-1-cyclopropyl-6,8-difluoro-1,4-dihydro-7-{(1∝,5∝,6∝)-6-amino-N-benzyl-3-azabicyclo[3.1.0]hex-6-yl}-4-oxo-quinoline-3-carboxylic acid]",14 mm
7,"CCNC1C(C)CN(c2c(F)c(N)c3c(=O)c(C(=O)O)cn(C4CC4)c3c2OC)CC1C (stereo not shown) [Example 35 (Mef), 5-Amino-1-cyclopropyl-6-fluoro-8-methoxy-1,4-dihydro-7-{4′-ethylamino-3′,5′-dimethylpiperidin-1-yl}-4-oxo-quinoline-3-carboxylic acid]",13 mm
8,"COc1c(N2CCC(NC(=O)[C@H](C)N)C(C)(C)C2)c(F)cc2c(=O)c(C(=O)O)cn(C3CC3)c12.Cl (stereo partly shown) [Example 8 (Mef), 1-Cyclopropyl-6-fluoro-8-methoxy-1,4-dihydro-7-(4′-(L)-alaninylamino-3′,3′-dimethylpiperidin-1-yl)-4-oxo-quinoline-3-carboxylic acid hydrochloride]",10 mm
9,"COc1c(N2CCC(N)C(C)(C)C2)c(F)cc2c(=O)c(C(=O)OC(C)C)cn(C3CC3)c12 (stereo not shown) [Example 3 (Mef), i-Propyl 1-cyclopropyl-6-fluoro-8-methoxy-1,4-dihydro-7-(4′-amino-3′,3′-dimethyl-piperidin-1-yl)-4-oxo-quinoline-3-carboxylate]",11 mm
10,"COc1c(N2CCC(NC(=O)[C@@H](N)CC(=O)O)C(C)(C)C2)c(F)cc2c(=O)c(C(=O)O)cn(C3CC3)c12.Cl (stereo partly shown) [Example 11 (Mef), 1-Cyclopropyl-6-fluoro-8-methoxy-1,4-dihydro-7-(4′-(L)-aspartylamino-3′,3′-dimethylpiperidin-1-yl}-4-oxo-quinoline-3-carboxylic acid hydrochloride]",6 mm
11,"C[C@H]1CCc2c(N3CCC(O)C(F)C3)c(F)cc3c(=O)c(C(=O)O)cn1c23 (stereo partly drawn) [Example 39 (Mef), (S)-(−)-9-Fluoro-6,7-dihydro-8-(4′-hydrox 3′-fluoropiperidin-1-yl)-5-methyl-1-oxo-1H,5H-benzo[i,j]quinolizine-2-carboxylic acid]",8 mm
12,"Cc1c(F)c(F)c(F)c2c1c(=O)c(C(=O)O)cn2C1CC1 [Example 29 (Mef), 1-cyclopropyl-6,7,8-trifluoro-5-methyl-1,4-dihydro-4-oxo-quinoline-3-carboxylic acid]",10 mm
